Test results as given in US20260008793A1, “IONIZABLE CATIONIC LIPIDS INCORPORATING SILICON” (ALDEXCHEM KFT., priority 2022, published 2026).

Columns and labels:
[1] = Encapsulation efficiency, RiboGreen RNA assay (Method A); assay type: physicochemical; conditions: LNP formulated by Method A
Method in brief: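 mRNA-LNPs (Method A formulation) diluted in TE buffer pH 7.4/7.5 and measured in duplicate with and without Triton lysis (37° C., 10 min). RiboGreen fluorescence read at ex 480/em 525. mRNA quantified against a standard curve.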

[2] = LNP size, PDI and zeta potential by Dynamic Light Scattering (Method A); assay type: physicochemical; conditions: LNP formulated by Method A; for Zeta potential (mV): 1xPBS pH 7.4; for PDI / Size (nm): DLS; for Size (nm): Luciferase-mRNA loaded
Method in brief: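 LNPs formulated by microfluidic mixing of mRNA in 10 mM citrate pH 4.0 with ethanolic lipid mix (ionizable lipid added to master mix) at 3:1 aqueous:lipid ratio, then dialysed (100 kDa MWCO). Size, PDI and zeta potential measured by dynamic light scattering.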

SMILES | EE (%) [1] | Zeta potential (mV) [2] | PDI [2] | Size (nm) [2]
CC/C=C\C/C=C\C/C=C\C/C=C\C/C=C\CCCCN(CCCCO)CCCCCC(OCCCCCCCC)O[Si](C)(C)OCC(CCCCCC)CCCCCCCC (centres unmarked) [Example 202, 16-hexyl-5-((5Z,8Z,11Z,14Z,17Z)-icosa-5,8,11,14,17-pentaen-1-yl)-13,13-dimethyl-11-(octyloxy)-12,14-dioxa-5-aza-13-silatetracosan-1-ol] | 96% | −10.0 mV | 0.072 | 154.8 nm
CC/C=C\C/C=C\C/C=C\C/C=C\C/C=C\CCCCN(CCCCO)CCCCCCOC(CCCCCCC)O[Si](C)(C)OCC(CCCCCC)CCCCCCCC (centres unmarked) [Example 203, 13-heptyl-18-hexyl-5-((5Z,8Z,11Z,14Z,17Z)-icosa-5,8,11,14,17-pentaen-1-yl)-15,15-dimethyl-12,14,16-trioxa-5-aza-15-silahexacosan-1-ol] | 94% | −14.95 mV | 0.13 | 139.2 nm
CC/C=C\C/C=C\C/C=C\C/C=C\C/C=C\CCCCN(CCCCO)CCCCCC[Si](C)(C)OC(CCCCCCC)OCCCCCCCC (centres unmarked) [Example 204, 14-heptyl-5-((5Z,8Z,11Z,14Z,17Z)-icosa-5,8,11,14,17-pentaen-1-yl)-12,12-dimethyl-13,15-dioxa-5-aza-12-silatricosan-1-ol] | 97% | −10.63 mV | 0.056 | 140 nm
CC/C=C\C/C=C\C/C=C\C/C=C\C/C=C\CCCCN(CCCCO)CCCCCCO[Si](C)(C)OC(CCCCCCC)OCCCCCCCC (centres unmarked) [Example 205, 15-heptyl-5-((5Z,8Z,11Z,14Z,17Z)-icosa-5,8,11,14,17-pentaen-1-yl)-13,13-dimethyl-12,14,16-trioxa-5-aza-13-silatetracosan-1-ol] | 97% | −13.13 mV | 0.077 | 197.2 nm
CCCCCCCCOC(CCCCCN(CCCCO)CCC[C@@H](C)C1CCC2C3CCC4C[C@H](OC)CC[C@]4(C)C3CC[C@@]21C)O[Si](C)(C)CCCCCCCC (stereo partly drawn) [Example 214, 4-((6-((dimethyl(octyl)silyl)oxy)-6-(octyloxy)hexyl)((4R)-4-((3R,10S,13R)-3-methoxy-10,13-dimethylhexadecahydro-1H-cyclopenta[a]phenanthren-17-yl)pentyl)amino)butan-1-ol] | 97% | −13.59 mV | 0.14 | 191.2 nm
CCCCCCCC[Si](C)(C)OC(CCCCCCC)OCCCCCCN(CCCCO)CCC[C@@H](C)C1CCC2C3CCC4C[C@H](OC)CC[C@]4(C)C3CC[C@@]21C (stereo partly drawn) [Example 215, 13-heptyl-5-((4R)-4-((3R,10S,13R)-3-methoxy-10,13-dimethylhexadecahydro-1H-cyclopenta[a]phenanthren-17-yl)pentyl)-15,15-dimethyl-12,14-dioxa-5-aza-15-silatricosan-1-ol] | 94% | −3.3 mV | 0.211 | 204 nm
CCCCCCCCOC(CCCCCN(CCCCO)CCC[C@@H](C)C1CCC2C3CCC4C[C@H](OC)CC[C@]4(C)C3CC[C@@]21C)O[Si](C)(C)OCCCCCCCC (stereo partly drawn) [Example 216, 5-((4R)-4-((3R,10S,13R)-3-methoxy-10,13-dimethylhexadecahydro-1H-cyclopenta[a]phenanthren-17-yl)pentyl)-13,13-dimethyl-11-(octyloxy)-12,14-dioxa-5-aza-13-siladocosan-1-ol] | 91% | −15.48 mV | 0.228 | 269.1 nm
CCCCCCCCO[Si](C)(C)OC(CCCCCCC)OCCCCCCN(CCCCO)CCC[C@@H](C)C1CCC2C3CCC4C[C@H](OC)CC[C@]4(C)C3CC[C@@]21C (stereo partly drawn) [Example 217, 13-heptyl-5-((4R)-4-((3R,10S,13R)-3-methoxy-10,13-dimethylhexadecahydro-1H-cyclopenta[a]phenanthren-17-yl)pentyl)-15,15-dimethyl-12,14,16-trioxa-5-aza-15-silatetracosan-1-ol] | 96% | −13.68 mV | 0.897 | 178.1 nm
